US7344845B2, “Olfactory receptor for isovaleric acid and related malodorants and use thereof in assays for identification of blockers of malodor” (Senomyx, Inc., priority 2001, dated 2008)

Tested on: individual murine olfactory neurons
Test: Ca2+ imaging (fura-2) of isolated murine olfactory neurons contacted with isovaleric acid
Type: cell-based, Balb/C mice
Procedure: Essentially, individual murine olfactory neurons isolated from an enzymatically and mechanically dissociated preparations of murine olfactory epithelium. A very mild trypsin dissociation allows to obtain a single cell suspension in which neurons still bear their axon and dendrites and can therefore be picked based on their morphology. The neurons were loaded with a Ca^2+-sensing fluorescent dye (fura-2) and contacted with isovaleric acid (at 10–100 μM). Single neurons that responded to the isovaleric acid stimulus, as indicated by transient increases in the concentration of intracellular Ca2+ were identified in a microscope field and collected using a suction microcapillary. […]
Olfactory neuroepithelium was dissected from Balb/C mice and placed in a small Petri dish with phosphate-buffered saline (PBS) without Ca^2+ and Mg^2+. […] After dissociation, the tissue was transferred into 5 ml PBS without Ca^2+ and Mg^2+ and the tissue was triturated very gently by pipetting up and down 4–5 times with plastic disposable, progress of cell dissociation was monitored under inverted microscope. […] Isolated olfactory sensory neurons were identified in an inverted microscope field either by their morphology alone (for random control neurons) or by the morphology and ability to respond to IVA as detected by Ca^2+-imaging. […]

murine olfactory receptors activated (receptors expressed in IVA-responding neurons) (isovaleric acid at 10–100 μM, eleven murine olfactory receptors, mOR IVA A through mOR IVA L): activated
Structure (SMILES): CC(C)CC(=O)O [isovaleric acid]
response of a single olfactory neuron indicated by changes in fura-2 fluorescence intensity ratios (340/380 nm) (IVA at either 100 μM or 10 μM, single isolated neuron, FIG. 3): response
